Experimental data reported in patent publication US8846704B2, “Thiopyrimidine-based compounds and uses thereof” (YM Biosciences Austraila Pty Ltd, priority 2007, dated 2014).

Columns and labels:
[1] = molecular target: T1, human JAK3 (Homo sapiens, UniProt P52333); assay: Alphascreen tyrosine kinase enzyme assay, JAK3 kinase domain; format: biochemical; conditions: read-out: JAK3 IC50_nM
T1 construct: The kinase domain of human JAK3 was amplified; GST (N); made in house; host or cells: Sf9 insect cells (baculovirus)
T1 sequence (P52333 822-1111 limits assumed): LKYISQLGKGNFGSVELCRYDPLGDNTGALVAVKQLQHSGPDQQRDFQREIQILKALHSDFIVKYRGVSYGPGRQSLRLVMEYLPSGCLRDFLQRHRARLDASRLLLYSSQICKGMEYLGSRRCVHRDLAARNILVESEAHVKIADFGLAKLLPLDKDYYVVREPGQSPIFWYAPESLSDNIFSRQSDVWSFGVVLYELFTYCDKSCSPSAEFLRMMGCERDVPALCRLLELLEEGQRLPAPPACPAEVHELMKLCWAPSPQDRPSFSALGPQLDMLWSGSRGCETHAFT
Method: (§1) For screening purposes, compounds (in 100% DMSO) were warmed at 37 degrees for at least 20 minutes before use. A […] stock was initially made in assay buffer, where the final concentration of DMSO was 0.3%. The stocks were then diluted in 384 well Optiplates (Packard) where the final concentration of the compound was […].
The kinase domain of human JAK3 was amplified from U937mRNA using the polymerase chain reaction with the following primers: […]
The JAK3 PCR products were cloned into the pDest20 destination expression vector (Gibco). The JAK3 plasmid was then transformed into competent DH10Bac cells (Gibco), and the recombinant baculovirus was prepared via Sf9 insect cell transfection.
(§2) Baculovirus preparations from each of the constructs were infected into either one or five liters of Sf9 cells (Invitrogen) grown in SF-900 medium (Invitrogen) to a cell density of approximately 1-2×10^6 cells/ml. Cells were infected with virus at a MOI of 0.8-3.0. Cells were harvested and lysed. Tyrosine kinase domains were purified by affinity chromatography on a glutathione-agarose column (Scientifix Pty. Ltd. catalog #: GSH-200).
(§3) Kinase assays were performed in 384 well Optiplates (Packard) using an Alphascreen Protein Tyrosine Kinase PY100 detection kit The compounds were pre-incubated with affinity purified PTK domain in the presence of phosphotyrosine assay buffer (10 mM HEPES, pH 7.5, 100 mM MgCl2, 25 mM NaCl, […] and 0.1% Tween 20) for 20 minutes. The compounds were then incubated with substrate in the presence of ATP. The substrate used was susbtrate-1 with the sequence biotin-EGPWLEEEEEAYGWMDF-NH2 [SEQ. ID. NO. 13] (final concentration […]). For HCK 80 μm ATP was used and incubated for 60 minutes. Alphascreen phosphotyrosine acceptor beads followed by streptavidin donor beads at a concentration of 1/100 in stop buffer were added to each well under subdued light and incubated for 2-3 hours., The Alphascreen plates were read on a Packard Fusion Alpha instrument.

[2] = molecular target: T2, human JAK2 (Homo sapiens, UniProt O60674); assay: Alphascreen tyrosine kinase enzyme assay, JAK2 kinase domain; format: biochemical; conditions: read-out: JAK2 IC50_nM
T2 construct: The kinase domain of human JAK2 was amplified; GST (N); made in house; host or cells: Sf9 insect cells (baculovirus)
T2 sequence (O60674 849-1124 limits assumed): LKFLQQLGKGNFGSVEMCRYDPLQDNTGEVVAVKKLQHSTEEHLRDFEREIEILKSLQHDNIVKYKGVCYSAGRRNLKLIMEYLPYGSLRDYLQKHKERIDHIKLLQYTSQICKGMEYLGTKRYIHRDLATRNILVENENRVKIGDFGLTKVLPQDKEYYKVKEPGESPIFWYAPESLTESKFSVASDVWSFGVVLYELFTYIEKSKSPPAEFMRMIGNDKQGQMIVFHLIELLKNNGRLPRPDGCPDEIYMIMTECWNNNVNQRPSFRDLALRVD
Method: as §1
The kinase domain of human JAK2 was amplified from U937mRNA using the polymerase chain reaction with the following primers: […]
The JAK2 PCR products were cloned into the pDest20 destination vector (Gibco). The JAK2 plasmid was then transformed into competent DH10Bac cells (Gibco), and the recombinant baculovirus was prepared via Sf9 insect cell transfection.
as §2, §3

[3] = system: BaF3 wild-type cells; assay: Cellular screening, BaF3 wild-type cells, Alamar Blue; format: cell-based; conditions: Mus musculus, 40 hr, read-out: BAF3wt IC50_nM
Method: (§4) For screening purposes, compounds were diluted in 96 well plates at a concentration of 20 μM. Plates were warmed at 37° C. for 30 minutes before the assay was performed.
(§5) The growth factor dependant myelomonocytic cell line BaF3 bearing the pTET-off plasmid (Clontech) was transfected with either pTELJAK2 or pTELJAK3, and the transfected cells were selected for growth-factor independent cell growth. The BaF3 wild-type cells were cultured in DMEM containing 10% FCS, 10% WEHI 3B conditioned medium. The BaF3 TELJAK cells ([…]) were cultured in DMEM 10% Tet-System Approved FBS (without WEHI 3B conditioned medium).
(§6) Cell suspensions were prepared by harvesting cells from culture (the cells used in this test were in late log phase growth with high viability.) Cells were diluted in the appropriate growth medium, as described above, to 1.1× final concentration (from 50,000 cell/mL to 200,000 cell/mL, depending on cell line).
(§7) Compounds to be tested were added (10 μL, 10× final concentration) to a flat bottomed 96-well plate. The cellular suspension (90 μL per well) was then added, and the plate incubated for 40 hr at 37° C., 5% CO2. Alamar Blue 10 μL per well was added and the plates returned to the incubator for a further 4-6 hours. The plates were then read at 544 nm.

[4] = system: CTLL2; assay: Cellular screening, CTLL2 cells, Alamar Blue; format: cell-based; conditions: Mus musculus, CTLL-2, read-out: CTLL2 IC50_nM
Method: as §6, §7

[5] = molecular target: T3, BaF3 TELJAK2 cells (BafT_J2) (Homo sapiens, UniProt O60674); assay: Cellular screening, BaF3 TEL:JAK2 cells, Alamar Blue; format: cell-based; conditions: 40 hr, read-out: BafT_J2 IC50_nM
T3 construct: fused on or other part: TEL (ETV6) N-terminal part, coding nucleotides 1-487, serves as the oligomerising partner; It is fused through a Sal I site to the JAK2 kinase domain and expressed from pTRE2 in BaF3 cells bearing pTET-off; P41212 (Transcription factor ETV6)
T3 sequence (O60674 whole entry, change not shown, the tested form may be a part): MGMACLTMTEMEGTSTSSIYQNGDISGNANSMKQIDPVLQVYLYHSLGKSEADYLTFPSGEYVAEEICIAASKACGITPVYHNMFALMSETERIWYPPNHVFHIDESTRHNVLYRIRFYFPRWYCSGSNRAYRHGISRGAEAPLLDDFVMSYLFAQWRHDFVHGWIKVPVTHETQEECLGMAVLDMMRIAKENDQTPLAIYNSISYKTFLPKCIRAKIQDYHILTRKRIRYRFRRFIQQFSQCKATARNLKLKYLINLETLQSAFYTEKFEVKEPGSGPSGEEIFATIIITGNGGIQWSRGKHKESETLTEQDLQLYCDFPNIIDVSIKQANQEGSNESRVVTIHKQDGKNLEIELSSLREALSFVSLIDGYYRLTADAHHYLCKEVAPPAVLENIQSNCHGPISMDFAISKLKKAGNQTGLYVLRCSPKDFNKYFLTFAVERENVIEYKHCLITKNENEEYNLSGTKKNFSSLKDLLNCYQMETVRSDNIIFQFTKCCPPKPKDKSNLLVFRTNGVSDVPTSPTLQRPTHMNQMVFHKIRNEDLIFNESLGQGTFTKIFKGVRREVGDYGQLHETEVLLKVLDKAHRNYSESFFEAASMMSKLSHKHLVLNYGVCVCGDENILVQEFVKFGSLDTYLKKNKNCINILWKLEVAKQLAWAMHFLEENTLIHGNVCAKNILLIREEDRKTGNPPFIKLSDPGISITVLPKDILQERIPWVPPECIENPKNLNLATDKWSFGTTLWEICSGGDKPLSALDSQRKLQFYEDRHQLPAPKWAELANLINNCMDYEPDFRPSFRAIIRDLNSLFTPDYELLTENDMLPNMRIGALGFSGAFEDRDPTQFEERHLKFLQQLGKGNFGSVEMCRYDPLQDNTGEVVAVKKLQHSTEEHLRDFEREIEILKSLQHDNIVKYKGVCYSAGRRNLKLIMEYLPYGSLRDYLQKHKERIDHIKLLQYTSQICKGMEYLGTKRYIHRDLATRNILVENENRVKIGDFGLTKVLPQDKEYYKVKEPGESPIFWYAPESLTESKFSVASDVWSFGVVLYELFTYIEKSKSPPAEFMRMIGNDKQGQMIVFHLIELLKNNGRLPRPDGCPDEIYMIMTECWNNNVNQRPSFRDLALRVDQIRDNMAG
Method: as §4
The coding region encompassing nucleotides 1-487 of TEL was amplified by PCR using the oligonucleotides STEL (5′-GGAGGATCCTGATCTCTCTCGCTGTGAGAC-3′) [SEQ ID NO 14] and 3TEL (5′-AGGC GTCGACTTCTTCTTCATGGTTCTG-3′) [SEQ ID NO 15] and U937 mRNA as a template. A […] restriction site was incorporated into the STEL primer, and a Sal I restriction site was incorporated into the 3TEL primer. The regions encompassing the kinase domain of JAK2 (nucleotides 2994-3914; JAK2F 5′-ACGC GTCGACGGTGCCTTTGAAGACCGGGAT-3′ [SEQ ID NO 16]; JAK2R 5′-ATAGTTTAGCGGCCGCTCAGAATGAAGGTCATTT-3′) [SEQ ID NO 17] and JAK3 (nucleotides 2520-3469; JAK3F 5′-GAAGTCGACTATGCCTGCCAAGACCCCACGATCTT-3′) [SEQ ID NO 18] were generated by PCR using Taq DNA polymerase (Gibco/BRL) and […] as a template. A Sal I restriction site was incorporated into the forward primer of JAK2 and JAK3, a Not I site was incorporated into the JAK2 reverse primer and a Xba I site was added to the reverse primer of JAK3.
A TEL/Jak2 fusion was generated by digestion of the TELPCR product with BamH I/Sal I restriction enzymes, digestion of the JAK2 PCR product with Sal I/Not I restriction enzymes, followed by ligation and subcloning of the ligation product into the mammalian expression Vector pTRE 2 (Clontech), which was prepared by digestion with BamH I-Not I restriction enzymes, to give the TEL/Jak2 fusion plasmid pTELJAK2.
as §5, §6, §7

[6] = molecular target: T4, BTK(h) (Homo sapiens, UniProt Q06187); assay: Upstate KinaseProfiler enzyme assay, BTK; format: biochemical; conditions: 500 nM compound; read-out: Percent inhibition at 500 nM BTK(h)
T4 construct: purchased Upstate Biotechnology (Dundee, UK), KinaseProfiler service
T4 sequence (Q06187 whole entry): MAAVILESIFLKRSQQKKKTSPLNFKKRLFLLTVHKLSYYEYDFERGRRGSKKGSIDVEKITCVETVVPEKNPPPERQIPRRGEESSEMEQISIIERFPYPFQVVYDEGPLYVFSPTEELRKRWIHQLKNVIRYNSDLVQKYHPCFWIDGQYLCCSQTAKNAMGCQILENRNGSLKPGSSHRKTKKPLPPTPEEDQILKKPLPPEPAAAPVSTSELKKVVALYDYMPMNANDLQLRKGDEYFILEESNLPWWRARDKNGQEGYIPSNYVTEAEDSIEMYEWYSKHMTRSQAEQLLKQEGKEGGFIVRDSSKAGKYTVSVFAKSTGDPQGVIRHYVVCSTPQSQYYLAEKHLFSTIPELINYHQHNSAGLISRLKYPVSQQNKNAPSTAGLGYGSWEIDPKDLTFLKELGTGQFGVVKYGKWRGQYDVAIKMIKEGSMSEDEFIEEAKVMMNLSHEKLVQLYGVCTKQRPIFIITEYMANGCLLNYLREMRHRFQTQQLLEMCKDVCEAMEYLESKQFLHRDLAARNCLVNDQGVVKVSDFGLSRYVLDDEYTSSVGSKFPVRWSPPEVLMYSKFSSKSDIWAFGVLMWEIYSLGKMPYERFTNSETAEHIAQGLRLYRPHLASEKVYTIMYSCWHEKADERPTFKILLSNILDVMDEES
Method: (§8) Further enzyme assays were conducted at Upstate Biotechnology (Dundee, UK) in the KinaseProfiler™ Assay system.
(§9) The general protocol is as follows. All kinases are pre-diluted to a 10× working concentration prior to addition into the assay. The composition of the dilution buffer for the kinases is 20 mM MOPS pH 7.0, 1 mM EDTA, 0.1% β-mercaptoethanol, 0.01% Brij-35, 5% glycerol, 1 mg/ml BSA. All substrates are dissolved and diluted to working stocks in de-ionised water.

[7] = molecular target: T5, KDR(h) (Homo sapiens, UniProt P35968); assay: Upstate KinaseProfiler enzyme assay, KDR; format: biochemical; conditions: 500 nM compound; read-out: Percent inhibition at 500 nM KDR(h)
T5 construct: purchased Upstate Biotechnology (Dundee, UK), KinaseProfiler service
T5 sequence (P35968 20-1356): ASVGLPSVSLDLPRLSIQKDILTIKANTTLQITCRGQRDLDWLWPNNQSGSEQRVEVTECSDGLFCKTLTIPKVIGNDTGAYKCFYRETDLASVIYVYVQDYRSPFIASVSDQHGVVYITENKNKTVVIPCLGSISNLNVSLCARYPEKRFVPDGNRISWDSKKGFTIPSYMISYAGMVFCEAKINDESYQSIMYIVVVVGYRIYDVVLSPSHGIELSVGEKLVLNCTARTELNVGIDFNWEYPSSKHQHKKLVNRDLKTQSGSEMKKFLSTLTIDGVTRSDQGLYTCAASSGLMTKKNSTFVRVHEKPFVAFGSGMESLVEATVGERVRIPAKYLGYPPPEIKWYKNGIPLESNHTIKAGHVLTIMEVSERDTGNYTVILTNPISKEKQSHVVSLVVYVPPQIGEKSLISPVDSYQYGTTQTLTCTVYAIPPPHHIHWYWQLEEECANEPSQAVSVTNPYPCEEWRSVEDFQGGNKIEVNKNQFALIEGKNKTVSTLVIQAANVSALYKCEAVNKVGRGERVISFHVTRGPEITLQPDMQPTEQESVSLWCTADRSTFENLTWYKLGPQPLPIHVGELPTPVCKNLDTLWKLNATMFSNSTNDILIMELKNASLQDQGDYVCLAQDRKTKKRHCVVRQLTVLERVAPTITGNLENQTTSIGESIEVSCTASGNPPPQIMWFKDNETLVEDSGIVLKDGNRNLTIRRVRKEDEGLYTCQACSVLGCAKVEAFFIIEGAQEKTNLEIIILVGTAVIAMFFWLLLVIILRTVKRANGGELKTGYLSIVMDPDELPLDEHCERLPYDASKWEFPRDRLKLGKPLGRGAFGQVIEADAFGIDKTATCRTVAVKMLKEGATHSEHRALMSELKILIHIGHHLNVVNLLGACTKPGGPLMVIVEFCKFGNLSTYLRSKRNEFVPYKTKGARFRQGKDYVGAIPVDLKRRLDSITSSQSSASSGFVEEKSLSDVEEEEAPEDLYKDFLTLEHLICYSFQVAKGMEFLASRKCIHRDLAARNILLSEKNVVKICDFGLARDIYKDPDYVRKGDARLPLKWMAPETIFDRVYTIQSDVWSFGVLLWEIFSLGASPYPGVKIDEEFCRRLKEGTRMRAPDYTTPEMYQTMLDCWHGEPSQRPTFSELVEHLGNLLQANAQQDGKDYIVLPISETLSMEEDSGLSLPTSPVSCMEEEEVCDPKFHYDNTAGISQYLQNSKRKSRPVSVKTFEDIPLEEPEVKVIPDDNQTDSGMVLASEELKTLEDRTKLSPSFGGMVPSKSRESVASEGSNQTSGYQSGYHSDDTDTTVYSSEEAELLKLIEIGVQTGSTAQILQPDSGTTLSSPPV
Method: as §8, §9

[8] = molecular target: T6, Blk(m) (Mus musculus, UniProt P16277); assay: Upstate KinaseProfiler enzyme assay, Blk; format: biochemical; conditions: 500 nM compound; read-out: Percent inhibition at 500 nM Blk(m)
T6 construct: purchased Upstate Biotechnology (Dundee, UK), KinaseProfiler service
T6 sequence (P16277 whole entry): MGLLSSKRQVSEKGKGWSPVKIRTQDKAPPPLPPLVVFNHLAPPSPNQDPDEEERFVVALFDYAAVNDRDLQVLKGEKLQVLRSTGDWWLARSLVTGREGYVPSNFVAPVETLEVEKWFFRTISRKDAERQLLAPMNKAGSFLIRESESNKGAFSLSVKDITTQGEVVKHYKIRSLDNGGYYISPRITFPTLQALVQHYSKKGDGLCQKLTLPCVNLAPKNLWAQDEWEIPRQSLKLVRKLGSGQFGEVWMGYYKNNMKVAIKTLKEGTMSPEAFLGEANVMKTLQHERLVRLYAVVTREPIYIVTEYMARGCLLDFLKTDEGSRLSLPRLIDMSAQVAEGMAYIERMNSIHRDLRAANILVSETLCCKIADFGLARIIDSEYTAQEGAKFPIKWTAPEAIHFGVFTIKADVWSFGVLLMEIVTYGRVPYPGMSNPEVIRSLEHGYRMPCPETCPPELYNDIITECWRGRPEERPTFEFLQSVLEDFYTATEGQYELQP
Method: as §8, §9

[9] = molecular target: T7, Bmx(h) (Homo sapiens, UniProt P51813); assay: Upstate KinaseProfiler enzyme assay, Bmx; format: biochemical; conditions: 500 nM compound; read-out: Percent inhibition at 500 nM Bmx(h)
T7 construct: purchased Upstate Biotechnology (Dundee, UK), KinaseProfiler service
T7 sequence (P51813 1-675): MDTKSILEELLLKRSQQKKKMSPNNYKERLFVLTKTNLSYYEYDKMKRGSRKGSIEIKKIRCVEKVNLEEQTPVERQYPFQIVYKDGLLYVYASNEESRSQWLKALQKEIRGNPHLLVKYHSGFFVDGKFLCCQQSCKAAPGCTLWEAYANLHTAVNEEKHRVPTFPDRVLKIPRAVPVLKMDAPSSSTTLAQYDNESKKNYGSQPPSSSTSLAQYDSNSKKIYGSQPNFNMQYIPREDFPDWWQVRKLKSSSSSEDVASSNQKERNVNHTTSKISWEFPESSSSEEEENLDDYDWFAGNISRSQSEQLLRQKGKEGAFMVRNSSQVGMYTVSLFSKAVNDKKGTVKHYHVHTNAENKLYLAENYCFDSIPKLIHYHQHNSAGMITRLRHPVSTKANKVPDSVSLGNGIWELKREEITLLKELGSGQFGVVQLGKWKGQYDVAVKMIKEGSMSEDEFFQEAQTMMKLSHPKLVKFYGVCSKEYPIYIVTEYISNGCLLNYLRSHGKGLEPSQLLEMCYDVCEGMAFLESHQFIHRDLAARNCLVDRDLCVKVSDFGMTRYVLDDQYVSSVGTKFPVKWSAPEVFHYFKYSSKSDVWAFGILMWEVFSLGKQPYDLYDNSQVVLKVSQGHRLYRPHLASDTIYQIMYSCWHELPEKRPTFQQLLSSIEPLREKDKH
Method: as §8, §9

[10] = molecular target: T8, human JAK1 (Homo sapiens, UniProt P23458); assay: Alphascreen tyrosine kinase enzyme assay, JAK1 kinase domain; format: biochemical; conditions: read-out: JAK1 IC50_nM
T8 construct: The kinase domain of human JAK1 was amplified; GST (N); made in house; host or cells: Sf9 insect cells (baculovirus)
T8 sequence (P23458 875-1153 limits assumed): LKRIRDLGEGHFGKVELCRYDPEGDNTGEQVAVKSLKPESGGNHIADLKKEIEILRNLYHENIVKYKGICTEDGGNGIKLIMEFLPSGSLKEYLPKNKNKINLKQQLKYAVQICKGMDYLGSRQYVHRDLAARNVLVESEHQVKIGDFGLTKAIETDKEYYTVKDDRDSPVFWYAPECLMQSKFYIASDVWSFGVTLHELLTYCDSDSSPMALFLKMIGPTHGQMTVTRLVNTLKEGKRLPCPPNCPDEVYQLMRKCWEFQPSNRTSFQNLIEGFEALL
Method: as §1
The kinase domain of human JAK1 was amplified from U937mRNA using the polymerase chain reaction with the following primers: […]
The JAK1 PCR products were cloned into the pDest20 destination vector (Gibco). The JAK1 plasmid was then transformed into competent DH10Bac cells (Gibco), and the recombinant baculovirus was prepared via Sf9 insect cell transfection.
as §2, §3

Cc1cnc(Nc2ccc(N3CCOCC3)cc2)nc1Sc1ccc(Cn2cnc(C#N)c2C#N)cc1 [Compound 221, 1-(4-(5-methyl-2-(4-morpholinophenylao)pyrimidin-4-ylthio)benzyl)-1H-imidazole-4,5-dicarbonitrile]
IC50 [1]: < 500 nM | IC50 [2]: > 1000 nM | IC50 [3]: < 1000 nM | IC50 [4]: < 1000 nM

N#CCc1cn(Cc2ccc(Sc3ccnc(Nc4ccc(N5CCOCC5)cc4)n3)cc2)cn1 [Compound 90, 2-(1-(4-(2-(4-Morpholinophenylamino)pyrimidin-4-ylthio)benzyl)-1H-imidazol-4-yl)acetonitrile]
IC50 [1]: < 500 nM | IC50 [2]: > 1000 nM | GI50 [5]: < 5000 nM | IC50 [3]: < 20000 nM | IC50 [4]: < 5000 nM

C=C(C)C(=O)Nc1cccc(Sc2ccnc(Nc3ccc(N4CCOCC4)cc3)n2)c1 [Compound 115, N-(3-(2-(4-morpholinophenylao)pyrimidin-4-ylthio)phenyl)methacrylamide]
inhibition at 0.5 µM [6]: 100% | inhibition at 0.5 µM [7]: 100% | inhibition at 0.5 µM [8]: 100% | inhibition at 0.5 µM [9]: 100%

C=CC(=O)Nc1ccc(Sc2ccnc(Nc3cccc(S(=O)(=O)NCCC(C)C)c3)n2)cc1 [Compound 363, N-(4-(2-(3-(N-isopentylsulfamoyl)phenylao)pyrimidin-4-ylthio)phenyl)acrylamide]
IC50 [1]: < 100 nM | IC50 [2]: > 1000 nM

CC#CC(=O)Nc1cccc(Sc2ccnc(Nc3ccc(N4CCOCC4)cc3)n2)c1 [Compound 331, N-(3-(2-(4-morpholinophenylao)pyrimidin-4-ylthio)phenyl)but-2-ynamide]
IC50 [1]: < 500 nM | IC50 [2]: > 1000 nM

C=CC(=O)Nc1ccc(Sc2ccnc(Nc3cc(OC)c(OC)c(OC)c3)n2)cc1 [Compound 71, N-(4-(2-(3,4,5-trimethoxyphenylao)pyrimidin-4-ylthio)phenyl)acrylamide]
inhibition at 0.5 µM [6]: 27% | inhibition at 0.5 µM [7]: 90% | inhibition at 0.5 µM [8]: 49% | inhibition at 0.5 µM [9]: 36%

Cc1cnc(Nc2ccc(N3CCOCC3)cc2)nc1Sc1ccc(N)c(C)c1Cl [Compound 169, 4-(4-ao-2-chloro-3-methylphenylthio)-5-methyl-N-(4-morpholinophenyl)pyrimidin-2-ae]
IC50 [1]: < 100 nM | IC50 [10]: > 1000 nM | IC50 [2]: > 1000 nM

C=CC(=O)Nc1ccc(Sc2nc(Nc3ccc(N4CCOCC4)cc3)ncc2C)c(Cl)c1 [Compound 252, N-(3-chloro-4-(5-methyl-2-(4-morpholinophenylao)pyrimidin-4-ylthio)phenyl)acrylamide]
IC50 [1]: < 100 nM | IC50 [2]: > 1000 nM | GI50 [5]: > 20000 nM | IC50 [3]: > 20000 nM | IC50 [4]: < 1000 nM

C/C=C/C(=O)Nc1ccc(Sc2ccnc(Nc3ccc(N4CCOCC4)cc3)n2)cc1 [Compound 59, (E)-N-(4-(2-(4-morpholinophenylao)pyrimidin-4-ylthio)phenyl)but-2-enamide]
inhibition at 0.5 µM [6]: 100% | inhibition at 0.5 µM [7]: 100% | inhibition at 0.5 µM [8]: 100% | inhibition at 0.5 µM [9]: 100%

C=CC(=O)Nc1cccc(Nc2nccc(Sc3ncccn3)n2)c1 [Compound 3, N-(3-(4-(pyrimidin-2-ylthio)pyrimidin-2-ylao)phenyl)acrylamide]
IC50 [1]: < 100 nM | IC50 [10]: > 1000 nM | IC50 [2]: > 1000 nM | IC50 [4]: < 5000 nM
